SMILES strings stand for the structures. Peptide text beside a SMILES is read from it.

What all share (test): Fluorescence polarization SH3 domain-PRP binding
Settings in all cases: FP, 0.2 µM fluorescein-labeled peptide, SH3 domain 0-200 µM, Tris/HCl pH 7.5, 25 °C, quadratic fit
A general note: Fluorescence polarisation rises when a labelled molecule tumbles more slowly, as on binding a larger partner.

Assay [1] addresses T1, ITSN1-4 SH3 domain (aa 1070-1138) (Homo sapiens, UniProt Q15811).
T1 construct: 1070-1138; GST (N); made in house; host or cells: Escherichia coli CodonPlus, Rosetta, BL21(DE3)
T1 sequence (Q15811 1070-1138): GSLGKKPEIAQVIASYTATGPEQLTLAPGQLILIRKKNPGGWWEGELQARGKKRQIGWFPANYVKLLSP
The procedure, abridged:
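Fluorescein-labeled proline-rich peptides (0.2 µM) were titrated with GST-fused SH3 domains (0–200 µM) in 30 mM Tris/HCl pH 7.5, 5 mM MgCl2, 3 mM DTT at 25 °C. Polarization was read at 470 nm excitation/560 nm emission; Kd came from quadratic ligand-binding fits.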

Assay [2] addresses T2, CRK-1 SH3 domain (aa 132-192) (Homo sapiens, UniProt P46108).
T2 construct: 132-192; GST (N); made in house; host or cells: Escherichia coli CodonPlus, Rosetta, BL21(DE3)
The procedure: (§1) The interaction between fluorescein-labeled proline-rich peptides (0.2 µM) and increasing concentrations of SH3 domains (ranging from 0 to 200 µM) was measured in a buffer (containing 30 mM Tris/HCl (pH 7.5), 5 mM MgCl2, and 3 mM DTT at 25 °C) in a total volume of 200 µL using a Fluoromax 4 fluorimeter in polarization mode and a quartz glass fluorescence cuvette (Hellma Ultra-Micro Cuvette 105.250-QS, Thermo Fisher Scientific, Waltham, MA USA). Excitation was performed at 470 nm and emission was measured at 560 nm. Dissociation constants (Kd) were determined by fitting the concentration-dependent binding curve to a quadratic ligand binding equation.
(§2) Fluorescence polarization measurements were performed to determine the binding affinities of SH3 domain–PRP interaction pairs from the dot blot analysis. SH3 proteins were titrated at increasing concentrations against fluorescent PRPs, which were kept at a constant concentration of 0.2 µM. GRB2-2^W193K, which is defective in the binding of PRPs such as RP1, was used as a negative control as previously described. […] The resulting data (Figure S6) allowed the evaluation of equilibrium dissociation constants (Kd) for 45 interactions between the SH3 domains and the PRPs (Figure 2B; Table S6).
(§3) Figure S6. Interactions of the SH3 domains with fluorescent PRPs measured by fluorescence polarization.
(§4) Fluorescent peptides (0.2 µM) were titrated with increasing concentrations of the corresponding SH3 domains.
(§5) GRB2-2W193K, defective in the binding of PRPs such as RP1, was used as a negative control as previously described. The x-axis represents SH3 domain concentrations as GST fusion proteins in µM, while the y-axis represents fluorescence polarization. The equilibrium dissociation constants (Kd) for the respective measurements were determined by fitting the titration curves to a quadratic ligand-binding equation (solid lines). All Kd values are […]
(§6) Error bars are derived from the fitting errors.
(§7) (1 picture or pasted object on this page, not shown here)

Assay [3] has as its target T3, ABI1 SH3 domain (aa 446-505) (Homo sapiens, UniProt Q8IZP0).
T3 construct: 446-505; GST (N); made in house; host or cells: Escherichia coli CodonPlus, Rosetta, BL21(DE3)
How it is done:
as §1, §2, §3, §4, §5, §6, §7

Assay [4] addresses T4, BIN1 SH3 domain (aa 520-593) (Homo sapiens, UniProt O00499).
T4 construct: 520-593; GST (N); made in house; host or cells: Escherichia coli CodonPlus, Rosetta, BL21(DE3)
T4 sequence (O00499 520-593): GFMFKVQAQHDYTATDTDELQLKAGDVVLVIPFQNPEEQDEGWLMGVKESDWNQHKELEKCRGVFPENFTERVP
How it is done: as §1, §2, §3, §4, §5, §6, §7

The target of assay [5] is T5, ITSN1-3 SH3 domain (aa 1002-1060) (Homo sapiens, UniProt Q15811).
T5 construct: 1002-1060; GST (N); made in house; host or cells: Escherichia coli CodonPlus, Rosetta, BL21(DE3)
T5 sequence (Q15811 1002-1060): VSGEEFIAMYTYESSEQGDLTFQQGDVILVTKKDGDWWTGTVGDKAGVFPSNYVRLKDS
The procedure:
as §1, §2, §3, §4, §5, §6, §7

Assay [6] deals with T6, ARHGEF30 (OBSCN) SH3 domain (aa 5600-5667) (Homo sapiens, UniProt Q5VST9).
T6 construct: 5600-5667; GST (N); made in house; host or cells: Escherichia coli CodonPlus, Rosetta, BL21(DE3)
T6 sequence (Q5VST9 5600-5667): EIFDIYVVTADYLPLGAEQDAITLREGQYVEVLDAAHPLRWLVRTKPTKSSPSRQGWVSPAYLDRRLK
How it is done:
as §1, §2, §3, §4, §5, §6, §7

Assay [7] concerns the target T7, ARHGAP12 SH3 domain (aa 12-74) (Homo sapiens, UniProt Q8IWW6).
T7 construct: 12-74; GST (N); made in house; host or cells: Escherichia coli CodonPlus, Rosetta, BL21(DE3)
T7 sequence (Q8IWW6 12-74): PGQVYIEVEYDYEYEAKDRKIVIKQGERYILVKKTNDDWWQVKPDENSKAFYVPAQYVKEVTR
How it is done:
as §1, §2, §3, §4, §5, §6, §7

For assay [8], the target named is T8, GRB2-2 SH3 domain (aa 158-215) (Homo sapiens, UniProt P62993).
T8 construct: 158-215; GST (N); made in house; host or cells: Escherichia coli CodonPlus, Rosetta, BL21(DE3)
The procedure:
as §1, §2, §3, §4, §5, §6, §7

For assay [9], the target named is T9, ITSN1-2 SH3 domain (aa 913-971) (Homo sapiens, UniProt Q15811).
T9 construct: 913-971; GST (N); made in house; host or cells: Escherichia coli CodonPlus, Rosetta, BL21(DE3)
T9 sequence (Q15811 913-971): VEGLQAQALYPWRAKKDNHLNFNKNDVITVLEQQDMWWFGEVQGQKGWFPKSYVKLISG
How it is done:
as §1, §2, §3, §4, §5, §6, §7

In assay [10] the target is T10, GRB2-1 SH3 domain (aa 1-58) (Homo sapiens, UniProt P62993).
T10 construct: 1-58; GST (N); made in house; host or cells: Escherichia coli CodonPlus, Rosetta, BL21(DE3)
How it is done: as §1, §2, §3, §4, §5, §6, §7

The target of assay [11] is T11, DLG2 SH3 domain (aa 536-606) (Homo sapiens, UniProt Q15700).
T11 construct: 536-606; GST (N); made in house; host or cells: Escherichia coli CodonPlus, Rosetta, BL21(DE3)
T11 sequence (Q15700 536-606): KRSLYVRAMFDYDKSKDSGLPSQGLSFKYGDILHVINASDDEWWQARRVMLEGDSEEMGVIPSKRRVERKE
The procedure:
as §1, §2, §3, §4, §5, §6, §7

For assay [12], the target named is T12, ITSN1-1 SH3 domain (aa 740-806) (Homo sapiens, UniProt Q15811).
T12 construct: 740-806; GST (N); made in house; host or cells: Escherichia coli CodonPlus, Rosetta, BL21(DE3)
T12 sequence (Q15811 740-806): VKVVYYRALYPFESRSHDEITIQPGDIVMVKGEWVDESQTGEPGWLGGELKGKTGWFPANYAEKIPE
How it is done:
as §1, §2, §3, §4, §5, §6, §7

T3 sequence (Q8IZP0 446-505): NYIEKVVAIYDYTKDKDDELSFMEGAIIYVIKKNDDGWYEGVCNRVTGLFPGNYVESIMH
T10 sequence (P62993 1-58): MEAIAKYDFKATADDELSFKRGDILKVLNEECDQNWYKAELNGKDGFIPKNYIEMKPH
T8 sequence (P62993 158-215): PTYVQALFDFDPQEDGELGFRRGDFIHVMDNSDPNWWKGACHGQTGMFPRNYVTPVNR
T2 sequence (P46108 132-192): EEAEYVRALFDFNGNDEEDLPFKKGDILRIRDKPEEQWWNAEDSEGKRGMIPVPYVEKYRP

Usually Kd stands for the free concentration of one partner at which half of the binding sites on the other are occupied at equilibrium, for simple one-to-one binding. A lower Kd goes with tighter binding. For `CC(C)[C@H](NC(=O)[C@@H]1CCCN1C(=O)[C@@H]1CCCN1C(=O)[C@H](C)NC(=O)[C@H](CCC(=O)O)NC(=O)[C@H](CS)NC(=O)[C@@H](N)CCCNC(=N)N)C(=O)N1CCC[C@H]1C(=O)N1CCC[C@H]1C(=O)N[C@@H](CCCNC(=N)N)C(=O)N[C@@H](CCCNC(=N)N)C(=O)N[C@@H](CCC(=O)O)C(=O)N[C@@H](CCCNC(=N)N)C(=O)NCC(=O)O` [RP2, reference compound] (H-RCEAPPVPPRRERG-OH), the Kd in assay [1] is over 200 µM; in assay [2], over 200 µM; in assay [3], over 200 µM; in assay [4], 48 µM; in assay [5], over 200 µM; in [6], over 200 µM. Also, the Kd in [7] was 15.5 µM; in assay [8], 12.9 µM; in assay [9], over 200 µM; in [10], 20 µM; in [11] it was over 200 µM; in assay [12], 11 µM.

`CC(C)C[C@H](NC(=O)[C@@H](NC(=O)[C@@H](N)C(C)C)[C@@H](C)O)C(=O)N1CCC[C@H]1C(=O)N[C@@H](Cc1c[nH]cn1)C(=O)NCC(=O)N1CCC[C@H]1C(=O)N[C@@H](CCCNC(=N)N)C(=O)N[C@@H](CO)C(=O)N[C@@H](C)C(=O)O` [Peptide P2] (H-VTLPHGPRSA-OH): the Kd in assay [1] is over 200 µM; in assay [2], over 200 µM; in assay [3], 60.7 µM; in [4], over 200 µM; in [5], over 200 µM; in assay [6], over 200 µM. Also, the Kd in [7], in [8], in [9], in [10], in assay [11] and in assay [12] was over 200 µM in each case.

In the case of `CC(C)C[C@H](NC(=O)[C@@H]1CCCN1C(=O)[C@@H](NC(=O)[C@H](CCCNC(=N)N)NC(=O)[C@@H]1CCCN1C(=O)[C@H](CO)NC(=O)[C@H](CC(N)=O)NC(=O)[C@@H]1CCCN1C(=O)[C@H](C)NC(=O)[C@@H](N)CO)[C@@H](C)O)C(=O)N[C@H](C(=O)N1CCC[C@H]1C(=O)N1CCC[C@H]1C(=O)N1CCC[C@H]1C(=O)N[C@@H](C)C(=O)N[C@@H](CO)C(=O)O)[C@@H](C)O` [Peptide P1] (H-SAPNSPRTPLTPPPAS-OH), the Kd in assay [1], in assay [2], in [3], in assay [4], in assay [5] and in assay [6] was over 200 µM each time. For the same molecule, the Kd in [7], in assay [8], in assay [9], in assay [10], in [11] and in [12] was over 200 µM in each case.

As to `CC[C@H](C)[C@H](NC(=O)[C@H](Cc1c[nH]cn1)NC(=O)[C@@H](N)CCC(N)=O)C(=O)N1CCC[C@H]1C(=O)N[C@@H](CCCCN)C(=O)N[C@@H](CC(C)C)C(=O)N1CCC[C@H]1C(=O)N1CCC[C@H]1C(=O)N[C@@H](CCCCN)C(=O)N[C@H](C(=O)N[C@@H](Cc1ccc(O)cc1)C(=O)O)[C@@H](C)O` [Peptide P10] (H-QHIPKLPPKTY-OH; N-terminus and C-terminus assumed), the Kd in assay [1], in assay [2], in assay [3], in assay [4], in [5] and in assay [6] was over 200 µM each time. For the same molecule, the equilibrium dissociation constant (Kd) in assay [7], in assay [8], in [9], in [10], in assay [11] and in [12] was over 200 µM in each case.

For the molecule `CC[C@H](C)[C@H](N)C(=O)N[C@@H](C)C(=O)NCC(=O)N1CCC[C@H]1C(=O)N1CCC[C@H]1C(=O)N[C@H](C(=O)N1CCC[C@H]1C(=O)N1CCC[C@H]1C(=O)N[C@@H](CCCNC(=N)N)C(=O)N[C@@H](CCC(N)=O)C(=O)N[C@@H](CO)C(=O)O)C(C)C` [Peptide P9] (H-IAGPPVPPRQS-OH), the Kd in assay [1] was over 200 µM; in [2] it was over 200 µM; in assay [3], over 200 µM; in assay [4], 47 µM; in [5], over 200 µM; in assay [6], over 200 µM. Further, the Kd in [7], in assay [8], in assay [9], in [10], in [11] and in assay [12] was over 200 µM throughout.

Take `CC(C)[C@H](N)C(=O)N1CCC[C@H]1C(=O)N[C@H](C(=O)N1CCC[C@H]1C(=O)N1CCC[C@H]1C(=O)N1CCC[C@H]1C(=O)N[C@H](C(=O)N1CCC[C@H]1C(=O)N1CCC[C@H]1C(=O)N[C@@H](CCCNC(=N)N)C(=O)N[C@@H](CCCNC(=N)N)C(=O)N[C@@H](CCCNC(=N)N)C(=O)O)C(C)C)C(C)C` [RP1, reference compound]: the Kd in assay [1], in [2], in [3], in assay [4], in [5] and in assay [6] was over 200 µM each time. In addition, the Kd in [7] was 16.7 µM; in assay [8] it was 3.4 µM; in assay [9], over 200 µM; in assay [10], 11 µM; in assay [11], over 200 µM; in [12], 39 µM.
